Holding throughout (assay): NCI anticancer screen, dose series, 48 h
Test [1] concerns LOX IMVI melanoma.
Test [2] has as its system 786-0 renal.
Test [3] deals with PC-3 prostate.
The test system of test [4] is ACHN renal.
For test [5], the system named is MOLT-4 leukemia.
The subject of test [6] is SK-MEL-5 melanoma.
For test [7], the system named is RPMI-8226 leukemia.
Test [8] relates to SK-OV-3 ovarian.
Test [9] has as its system RXF 393 renal.
The test system of test [10] is EKVX NSCLC.

Nine compounds from PubChem BioAssay (NCI) can be followed below.

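Interpolation was linear, between the two tested concentrations surrounding the appropriate level; five concentrations were tested over 48 hours in 96-well plates. Here, GI50 denotes the concentration required for 50% inhibition of growth. Definition used: TGI = concentration required for complete inhibition of growth.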 Some results are limits rather than exact numbers.

As for `CNC(=S)N/N=C/CSC/C=N/NC(=S)NC`, the GI50 is > 60.7 µM in test [1]; > 100 µM in [2]; > 100 µM in [3]; > 100 µM in test [4]; > 100 µM in test [5]; > 100 µM in [6]. In addition, the GI50 in test [7], in test [8] and in test [9] was > 100 µM each time. The TGI in test [1], in [2], in test [3], in test [4], in [5] and in test [6] was > 100 µM throughout. Moreover, the TGI in test [7], in test [8] and in [9] was > 100 µM in each case.
With `O=c1[nH]c(-c2ccncc2)nc2sc3c(c12)CCCCCC3`, the GI50 in test [1], in test [2], in test [3], in [4], in test [5] and in [6] was > 100 µM in each case. The GI50 in test [7] and in test [9] was > 100 µM throughout. Besides, the TGI in test [1], in test [2], in [3], in test [4], in [5] and in test [6] was > 100 µM each time. The TGI in test [7] and in test [9] was > 100 µM each time.
On to `C/C(=N\NC(N)=O)C(CN1CCOCC1)C(c1ccccc1)c1c(O)c2ccccc2oc1=O` (stereo unspecified), for which the TGI in [1], in test [2], in test [3], in [10], in [4] and in [5] was > 100 µM throughout. Moreover, the TGI in [6], in test [7] and in test [8] was > 100 µM each time.
Take `CC(=O)Nc1ccc(S(=O)(=O)N2C(=O)CCC2C(=O)Nc2ccccc2)cc1` (stereo unspecified): the GI50 in test [1] is 0.0482 µM; in test [2] it was 1.42 µM; in [3] it was 1.08 µM; in test [4], 0.241 µM; in test [5], 1.96 µM; in [6], 0.367 µM. The GI50 in test [7] was 0.83 µM; in test [8] it was 2.87 µM; in test [9], 3.48 µM. Moreover, the TGI in test [1] was found to be 13.2 µM; in test [2] it was 13.3 µM; in test [3] it was 15.7 µM; in [4], 14.3 µM; in [5], 14.5 µM; in test [6], 5.31 µM. Also, the TGI was found to be 15 µM in [7], 18.8 µM in [8] and 13.9 µM in [9].
For the compound `CC1(C)N=C(N)N=C(N)N1c1cccc(CC(=O)Nc2ccccc2)c1`, the GI50 was 4.41 µM in test [1]; 78.5 µM in test [2]; 0.895 µM in [3]; > 100 µM in [10]; > 100 µM in test [4]; 25.2 µM in test [5]. Also, the GI50 is 4.44 µM in [6], > 100 µM in test [8] and > 100 µM in [9]. For the same compound, the TGI in test [1], in [2], in test [3], in test [10], in [4] and in [5] was > 100 µM in each case. For the same compound, the TGI in test [6], in test [8] and in test [9] was > 100 µM in each case.
Regarding `CCc1ccc2cc3c(ccc4ccccc43)c3c2c1CC3`, the GI50 in test [1], in test [2], in test [3], in test [4], in test [5] and in test [6] was > 100 µM in each case. For the same compound, the GI50 in test [7], in [8] and in test [9] was > 100 µM in each case. For the same compound, the TGI in test [1], in test [2], in test [3], in test [4], in test [5] and in [6] was > 100 µM throughout. The TGI in test [7], in [8] and in test [9] was > 100 µM in each case.
Take `Nc1ncnc2c1ncn2C1SC(CO)C(O)C1O` (stereo unspecified): the GI50 in test [1] is 18.5 µM; in test [2] it was 16.5 µM; in test [3], 3.72 µM; in test [4], 31.8 µM; in test [5], > 100 µM; in [6] it was 74.4 µM. The values for the GI50 in test [7], in test [8] and in [9] were 44.1 µM, 17.3 µM and 80.6 µM, respectively. In addition, the TGI in [1] was 48.4 µM; in test [2] it was 37.3 µM; in [3], 33.1 µM; in test [4], > 100 µM; in test [5] it was > 100 µM; in test [6] it was > 100 µM. Moreover, the TGI in test [7] is > 100 µM; in [8], 59.6 µM; in [9], > 100 µM.
With `COc1cc(-c2nn(-c3cccc(NC(=O)NCCNC(=O)c4ccccc4)c3)cc2-c2ccncc2)ccc1Cl`, the GI50 in test [1] is 2.46 µM; in [2], 1.94 µM; in test [3], 2.4 µM; in test [10], 3.76 µM; in [4], 3.14 µM; in [5] it was 2.18 µM. Besides, the GI50 in [6] is 1.55 µM; in test [8] it was 4.21 µM; in [9] it was 1.94 µM. Further, the TGI in test [1] is > 100 µM; in test [2], 5.37 µM; in test [3] it was > 100 µM; in [10] it was > 100 µM; in [4] it was > 100 µM; in test [5] it was > 100 µM. Further, the TGI is 4.06 µM in test [6], > 100 µM in test [8] and 6.42 µM in test [9].
In the case of `Cc1nn(-c2ccccc2)c2c1[C@@H](C)[C@H]1CC3(CC4(C)C[C@@H]3C1(C)c1c(C)nn(-c3ccccc3)c1N4C)N2C` (stereo partly specified), the GI50 in test [2] is > 100 µM; in test [3], 0.591 µM; in test [8], 24.1 µM; in test [9] it was 3.41 µM. Moreover, the TGI in test [2] is > 100 µM; in test [3], > 100 µM; in [8], > 100 µM; in test [9] it was 48.2 µM.
